Test results from ChEMBL document CHEMBL1136112, “Novel inhibitors of procollagen C-proteinase. Part 2: glutamic acid hydroxamates” (Bioorg Med Chem Lett, 2003).
pKi: −log10 of the molar value.

Key:
[1] = molecular target: T1, Bone morphogenetic protein 1 (Homo sapiens, UniProt P13497); test: Ability to inhibit procollagen C-terminal proteinase (PCP) tested in vitro
T1 sequence (P13497 whole entry): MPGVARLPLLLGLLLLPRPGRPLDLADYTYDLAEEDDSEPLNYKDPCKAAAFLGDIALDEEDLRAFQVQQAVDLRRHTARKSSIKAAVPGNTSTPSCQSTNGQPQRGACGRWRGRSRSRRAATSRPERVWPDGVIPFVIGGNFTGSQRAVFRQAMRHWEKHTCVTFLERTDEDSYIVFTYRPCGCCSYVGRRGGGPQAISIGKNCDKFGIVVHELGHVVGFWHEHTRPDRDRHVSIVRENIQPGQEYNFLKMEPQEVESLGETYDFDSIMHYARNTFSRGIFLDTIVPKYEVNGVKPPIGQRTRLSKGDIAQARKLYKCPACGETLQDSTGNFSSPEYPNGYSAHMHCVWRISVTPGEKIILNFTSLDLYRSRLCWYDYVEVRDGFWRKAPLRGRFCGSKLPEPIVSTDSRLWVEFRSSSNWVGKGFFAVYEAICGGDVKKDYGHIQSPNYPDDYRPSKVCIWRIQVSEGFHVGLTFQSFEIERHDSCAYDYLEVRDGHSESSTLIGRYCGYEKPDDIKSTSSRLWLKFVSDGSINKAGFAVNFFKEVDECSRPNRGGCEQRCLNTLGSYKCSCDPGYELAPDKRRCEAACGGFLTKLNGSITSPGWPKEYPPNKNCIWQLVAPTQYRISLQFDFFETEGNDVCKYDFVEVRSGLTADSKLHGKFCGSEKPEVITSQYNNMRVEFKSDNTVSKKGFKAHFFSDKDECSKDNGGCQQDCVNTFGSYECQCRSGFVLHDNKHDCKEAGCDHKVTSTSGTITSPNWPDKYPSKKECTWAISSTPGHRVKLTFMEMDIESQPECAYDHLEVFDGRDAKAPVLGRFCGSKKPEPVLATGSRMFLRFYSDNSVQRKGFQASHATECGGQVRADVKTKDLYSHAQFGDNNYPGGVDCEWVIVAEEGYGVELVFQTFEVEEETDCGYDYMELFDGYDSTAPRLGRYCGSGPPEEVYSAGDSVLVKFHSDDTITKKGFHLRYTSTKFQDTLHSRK

Neutrophil collagenase = Neutrophil collagenase (Homo sapiens, UniProt P22894); test: Inhibition of MMP-8
Neutrophil collagenase, sequence (P22894 whole entry): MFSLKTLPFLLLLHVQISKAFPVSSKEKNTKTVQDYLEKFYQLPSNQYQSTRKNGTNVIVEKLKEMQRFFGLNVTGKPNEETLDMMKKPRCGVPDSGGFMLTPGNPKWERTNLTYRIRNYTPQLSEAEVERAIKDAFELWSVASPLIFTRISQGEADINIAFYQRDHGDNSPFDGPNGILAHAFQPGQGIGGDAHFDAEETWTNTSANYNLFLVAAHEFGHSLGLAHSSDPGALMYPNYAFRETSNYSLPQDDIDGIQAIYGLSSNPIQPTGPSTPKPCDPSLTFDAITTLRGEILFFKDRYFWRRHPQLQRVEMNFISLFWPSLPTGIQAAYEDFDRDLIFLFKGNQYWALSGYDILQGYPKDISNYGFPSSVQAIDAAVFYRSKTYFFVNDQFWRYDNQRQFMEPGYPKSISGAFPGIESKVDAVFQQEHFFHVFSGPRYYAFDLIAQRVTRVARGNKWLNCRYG

Interstitial collagenase = molecular target: T2, Interstitial collagenase (Homo sapiens, UniProt P03956); test: Inhibition of matrix metalloprotease-1
T2 sequence (P03956 whole entry): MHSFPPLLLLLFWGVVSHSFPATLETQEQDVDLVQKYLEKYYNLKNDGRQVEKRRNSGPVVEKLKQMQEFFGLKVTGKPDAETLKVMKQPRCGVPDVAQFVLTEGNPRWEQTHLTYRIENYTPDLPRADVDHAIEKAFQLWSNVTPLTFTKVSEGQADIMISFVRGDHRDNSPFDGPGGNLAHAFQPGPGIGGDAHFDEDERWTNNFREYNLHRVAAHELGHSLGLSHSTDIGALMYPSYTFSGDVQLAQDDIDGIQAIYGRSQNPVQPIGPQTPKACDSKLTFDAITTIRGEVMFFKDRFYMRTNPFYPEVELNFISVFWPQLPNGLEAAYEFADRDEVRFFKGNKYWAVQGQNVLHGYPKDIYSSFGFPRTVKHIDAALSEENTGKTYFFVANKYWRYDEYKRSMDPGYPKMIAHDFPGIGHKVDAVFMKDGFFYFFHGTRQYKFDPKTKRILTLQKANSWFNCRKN

| SMILES | pKi [1] | pKi (Neutrophil collagenase) | pKi (Interstitial collagenase) |
| --- | --- | --- | --- |
| CCOC(=O)N1CCN(C(=O)CC[C@H](C(=O)NO)N(Cc2ccc3c(c2)OCO3)S(=O)(=O)c2c(C)cc(OC)c(C)c2C)CC1 | 7.37 | 4.52 | 4.49 |
| COc1ccc(S(=O)(=O)N(Cc2ccc3c(c2)OCO3)[C@H](CCC(=O)N2CCN(C(=O)Nc3cccc(OC)c3)CC2)C(=O)NO)cc1 | 6.98 |  |  |
| COc1ccc(S(=O)(=O)N(Cc2ccc3c(c2)OCO3)[C@H](CCC(=O)N2CCN(c3ccccn3)CC2)C(=O)NO)cc1 | 6.68 |  |  |
| COc1cc(C)c(S(=O)(=O)N(Cc2ccc3c(c2)OCO3)[C@H](CCC(=O)N2CCN(C(=O)OCc3ccccc3)CC2)C(=O)NO)c(C)c1C | 7.00 | 4.46 | < 4.40 |
| COC(=O)CC[C@H](C(=O)NO)N(Cc1ccc(C)c([N+](=O)[O-])c1)S(=O)(=O)c1ccc(OC)cc1 | < 4.40 |  |  |
| COc1ccc(NC(=O)N2CCN(C(=O)CC[C@H](C(=O)NO)N(Cc3ccc4c(c3)OCO4)S(=O)(=O)c3ccc(OC)cc3)CC2)cc1 | 7.05 |  |  |
| COc1ccc(S(=O)(=O)N(Cc2ccc3c(c2)OCO3)[C@H](CCC(=O)N(CCC#N)Cc2ccccc2)C(=O)NO)cc1 | 7.48 |  |  |
| COc1ccc(S(=O)(=O)N(Cc2ccc3c(c2)OCO3)[C@H](CCC(=O)N2CCC(Cc3ccccc3)CC2)C(=O)NO)cc1 | 6.92 |  |  |
| COc1ccc(S(=O)(=O)N(Cc2ccc3c(c2)OCO3)[C@H](CCC(=O)N2CCN(C(=O)c3ccccc3)CC2)C(=O)NO)cc1 | 7.46 |  |  |
| COc1ccc(S(=O)(=O)N(Cc2ccc3c(c2)OCO3)[C@H](CCC(=O)N(Cc2ccccc2)Cc2ccccc2)C(=O)NO)cc1 | 6.40 |  |  |
| COc1ccc(S(=O)(=O)N(Cc2ccc3c(c2)OCO3)[C@H](CCC(=O)NCC2CC2)C(=O)NO)cc1 | 6.18 |  |  |
| COc1ccc(S(=O)(=O)N(Cc2ccc3c(c2)OCO3)[C@H](CCC(=O)N2CCN(c3ccccc3)CC2)C(=O)NO)cc1 | 6.47 |  |  |
| COC(=O)CC[C@H](C(=O)NO)N(Cc1ccc(OC)cc1)S(=O)(=O)c1ccc(OC)cc1 | 4.82 |  |  |
| COc1ccc(S(=O)(=O)N(Cc2ccc3c(c2)OCO3)[C@H](CCC(=O)N2CCN(C)CC2)C(=O)NO)cc1 | 6.00 |  |  |
| COC(=O)C[C@H](C(=O)NO)N(Cc1ccc2c(c1)OCO2)S(=O)(=O)c1ccc(OC)cc1 | 6.02 |  |  |
| COc1cc(C)c(S(=O)(=O)N(Cc2ccc3c(c2)OCO3)[C@H](CCC(=O)N2CCN(c3ccccc3)CC2)C(=O)NO)c(C)c1C | 6.96 | 4.89 | < 4.40 |
| COc1ccc(S(=O)(=O)N(Cc2ccc3c(c2)OCO3)[C@H](CCC(=O)N2CCN(Cc3ccccn3)CC2)C(=O)NO)cc1 | < 6.00 |  |  |
| COc1ccc(S(=O)(=O)N(Cc2ccc3c(c2)OCO3)[C@H](CCC(=O)N2CCN(Cc3cccnc3)CC2)C(=O)NO)cc1 | 6.21 |  |  |
| CCN(CC)C(=O)CC[C@H](C(=O)NO)N(Cc1ccc2c(c1)OCO2)S(=O)(=O)c1ccc(OC)cc1 | 5.89 |  |  |
| COc1ccc(S(=O)(=O)N(Cc2ccc3c(c2)OCO3)[C@H](CCC(=O)N(CCc2ccccc2)Cc2ccccc2)C(=O)NO)cc1 | 7.00 |  |  |
| COC(=O)CC[C@H](C(=O)NO)N(Cc1ccc(C(F)(F)F)cc1)S(=O)(=O)c1ccc(OC)cc1 | < 4.40 |  |  |
| COc1ccc(S(=O)(=O)N(Cc2ccc3c(c2)OCO3)[C@H](CCC(=O)N2CCNCC2)C(=O)NO)cc1 | 5.92 |  |  |

| SMILES | pKi [1] | pKi (Neutrophil collagenase) | pKi (Interstitial collagenase) |
| --- | --- | --- | --- |
| COc1ccc(S(=O)(=O)N(Cc2ccc3c(c2)OCO3)[C@H](CCC(=O)N2CCN(Cc3ccccc3)CC2)C(=O)NO)cc1 | 6.13 |  |  |
| COc1ccc(S(=O)(=O)N(Cc2ccc3c(c2)OCO3)[C@H](CCC(=O)NCc2ccc(-c3ccccc3)cc2)C(=O)NO)cc1 | 7.96 |  |  |
| COc1ccc(S(=O)(=O)N(Cc2ccc3c(c2)OCO3)[C@H](CCC(=O)N2CCN(C(C)=O)CC2)C(=O)NO)cc1 | 6.70 | 8.05 | 6.92 |
| COc1cc(C)c(S(=O)(=O)N(Cc2ccc3c(c2)OCO3)[C@H](CCC(=O)N2CCN(C(C)=O)CC2)C(=O)NO)c(C)c1C | 7.20 | 5.15 | 4.43 |
| COc1ccc(S(=O)(=O)N(Cc2ccc3c(c2)OCO3)[C@H](CCC(=O)NCc2ccccn2)C(=O)NO)cc1 | 6.28 |  |  |
| COc1ccc(S(=O)(=O)N(Cc2ccc3c(c2)OCO3)[C@H](CCC(=O)NCC(C)C)C(=O)NO)cc1 | 6.55 |  |  |
| COC(=O)CC[C@H](C(=O)NO)N(Cc1ccc(Br)cc1)S(=O)(=O)c1ccc(OC)cc1 | < 4.40 |  |  |
| COc1ccc(S(=O)(=O)N(Cc2ccc3c(c2)OCO3)[C@H](CCC(=O)N2CCN(C(=O)c3ccco3)CC2)C(=O)NO)cc1 | 7.40 |  |  |
| COc1ccc(S(=O)(=O)N(Cc2ccc3c(c2)OCO3)[C@H](CCC(=O)N2CCN(Cc3ccncc3)CC2)C(=O)NO)cc1 | < 6.00 |  |  |
| COc1ccc(S(=O)(=O)N(Cc2ccc3c(c2)OCO3)[C@H](CCC(=O)N(C)C)C(=O)NO)cc1 | 6.48 |  |  |
| CCNC(=O)CC[C@H](C(=O)NO)N(Cc1ccc2c(c1)OCO2)S(=O)(=O)c1ccc(OC)cc1 | 5.92 |  |  |
| COc1ccc(S(=O)(=O)N(Cc2ccc3c(c2)OCO3)[C@H](CCC(=O)NCc2ccccc2)C(=O)NO)cc1 | 7.01 |  |  |
| COc1ccc(S(=O)(=O)N(Cc2ccc3c(c2)OCO3)[C@H](CCC(=O)NCCC(C)C)C(=O)NO)cc1 | 7.70 |  |  |
| COc1ccc(S(=O)(=O)N(Cc2ccc3c(c2)OCO3)[C@H](CCC(=O)N2CCOCC2)C(=O)NO)cc1 | 6.72 |  |  |
| COc1ccc(S(=O)(=O)N(Cc2ccc3c(c2)OCO3)[C@H](CCC(=O)N2CCN(C(=O)OCc3ccccc3)CC2)C(=O)NO)cc1 | 6.59 |  |  |
| COc1ccc(S(=O)(=O)N(Cc2ccc3c(c2)OCO3)[C@H](CCC(=O)NCC2CCCCC2)C(=O)NO)cc1 | 6.39 |  |  |
| COc1ccc(S(=O)(=O)N(Cc2ccc3c(c2)OCO3)[C@H](CCC(=O)NCc2cccnc2)C(=O)NO)cc1 | 6.80 |  |  |
| CCOC(=O)N1CCN(C(=O)CC[C@H](C(=O)NO)N(Cc2ccc3c(c2)OCO3)S(=O)(=O)c2ccc(OC)cc2)CC1 | 7.19 | 8.22 | 7.05 |
| COc1ccc(S(=O)(=O)N(Cc2ccc3c(c2)OCO3)[C@H](CCC(=O)N2CCN(S(C)(=O)=O)CC2)C(=O)NO)cc1 | 6.47 |  |  |
| COC(=O)CC[C@H](C(=O)NO)N(Cc1ccc2c(c1)OCO2)S(=O)(=O)c1ccc(OC)cc1 | 6.52 |  |  |
| COc1ccc(S(=O)(=O)N(Cc2ccc3c(c2)OCO3)[C@H](CCC(=O)N(CCC#N)Cc2cccnc2)C(=O)NO)cc1 | 6.32 |  |  |
| COc1ccc(S(=O)(=O)N(Cc2ccc3c(c2)OCO3)[C@H](CCC(=O)NCc2ccncc2)C(=O)NO)cc1 | 5.93 |  |  |
